# Legend:
# [1] = target: T1, Gal4-human ER chimera (Gal4-HEGO) (Homo sapiens, UniProt P03372); experiment: Recombinant receptor/reporter gene assay; assay type: cell-based
# T1 sequence (P03372 311-547 limits assumed): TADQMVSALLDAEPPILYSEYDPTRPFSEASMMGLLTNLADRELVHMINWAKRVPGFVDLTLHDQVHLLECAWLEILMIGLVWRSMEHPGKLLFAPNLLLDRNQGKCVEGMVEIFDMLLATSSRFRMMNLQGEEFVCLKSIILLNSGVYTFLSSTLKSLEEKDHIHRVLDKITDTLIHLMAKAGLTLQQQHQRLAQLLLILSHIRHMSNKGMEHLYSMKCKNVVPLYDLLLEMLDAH
# ovariectomized CD-1 mice [2] = experiment: Mouse uterotrophic assay; assay type: in vivo; conditions: 202 mg/kg, p < 0.0002
# ovariectomized CD-1 mice [3] = experiment: Vaginal cell cornification assay; assay type: in vivo, mouse; conditions: 202, 16 and 1.7 mg/kg
# MCF-7 cells = experiment: GC-MS analysis of media from PCB 104-treated transfected MCF-7 cells; conditions: MCF-7 cells incubated with PCB 104 for 8, 24, 48 hr; SIM GC-MS
# [4] = co-treatment 1 nM E2 plus 0.1, 1, 10 pM (printed)
smiles,measurement,setting,value
"Clc1cc(Cl)c(-c2c(Cl)cc(Cl)cc2Cl)c(Cl)c1 [PCB 155, 2,4,6,2',4',6'-hexachlorobiphenyl]",estrogenic activity in reporter gene assay,"[1]; alone, 24 hr",minimal
same,effect on E2-induced luciferase activity compared to E2 alone,[1]; [4],significant antiestrogenic activity
"Oc1cc(Cl)c(-c2c(Cl)cc(Cl)cc2Cl)c(Cl)c1 [HO-PCB 104, 2,4,6,2',6'-pentachloro-4-biphenylol]",effect on E2-induced luciferase activity compared to E2 alone,[1]; co-treatment 1 nM E2 plus 10 pM (printed; 10 microM in abstract),additivity
"Clc1cc(Cl)c(-c2c(Cl)cccc2Cl)c(Cl)c1 [PCB 104, 2,4,6,2',6'-pentachlorobiphenyl]",effect on E2-induced luciferase activity compared to E2 alone,[1]; [4],no effect
same,uterine wet weight versus vehicle control,ovariectomized CD-1 mice [2],increased uterine wet weight
same,"vaginal cell cornification, dose response",ovariectomized CD-1 mice [3],induced vaginal epithelial cell cornification
same,presence of metabolite HO-PCB 104 or hydroxylated isomers in media extracts,MCF-7 cells,failed to detect
